Data from patent publication US20090203778A1, “FATTY ACID ANALOGUES, I.E. INCLUDING DHA DERIVATIVES FOR USES AS A MEDICAMENT” (priority 2005, published 2009).

Key:
[1] = system: adipose prone mice of the C57BL/6J strain; assay: Animal model of metabolic syndrome, adipose prone mice on high-fat diet, 4 months of dietary interventions; format: in vivo; conditions: for Body weight / Body wt. gain / NEFA / Insulin / TAGs: 4 months; for AUCglucose: intraperitoneal glucose tolerance test; for Insulin: plasma; for TAGs: serum
Experimental: An animal model of the metabolic syndrome using the adipose prone mice of the C57BL/6J strain was used to document effects on typical laboratory and pathological anatomical features common for the metabolic syndrome. When given a high fat diet containing about 60% of fat, the animals are getting obese developing high insulin plasma levels, pathological glucose tolerance test, elevated serum triglycerides and non-esterified fatty acids, and fat liver. All experiments were performed on male C57BL/6 mice, either a substrain C57BL/N (supplier: Charles River, Germany, n=160, experiments A-C, see below), or a substrain C57BL/6J (supplier: the Jackson laboratory, Bar Harbor, Me., USA, n=32, experiment D). Total numbers of animals used were higher (n=170 and 36, respectively), because of culling. In the latter case, animals were bred for several generations (<20) at the Institute of Physiology. At the beginning of the treatment, animals were 14-week-old and their body weight range was 23.6-27.1 g. One week before the study start, animals were sorted according to their body weight and assigned to subgroups (n=8) of similar mean body weight. […] The animals eliminated from the study at this stage were sacrificed by cervical dislocation. Complete health check of mice was performed by the supplier Charles River and at the start of study serological tests were performed by ANLAB (Prague, Czech Republic). In addition, regular health checks were performed in the animal house in 3-mo-intervals using sentinel mice and serological examinations (ANLAB). In all the tests, the animals were free of specific pathogens. […] All these compounds were in the form of ethyl esters, provided by Pronova Biocare a.s. in sealed containers. Chemical composition of the PRB-compounds was unknown to the laboratory performing the experiments (Institute of Physiology, Academy of Sciences Prague, Czech Republic). After arrival, the PRB-compound were stored in a refrigerator in original containers. The containers were opened just before preparation of the experimental diets. Diets were kept in plastic bags flushed by nitrogen and stored at −70° C. in small aliquots sufficient for feeding animals for one week. Fresh ratios were given in 2-day intervals or daily. The study was based on 4 individual experiments. […] In each experiment, a subgroup of plain cHF diet-fed mice was included and served as a control. Mice were caged in groups of 4 and fed standard chow diet until 3 mo of age, when animals (n=8-13) were randomly assigned to the different test diets. […] Animals were sacrificed after 4 months on the experimental diets, at 7 mo of age, and the end-point analysis were performed.

[2] = Analysis of intracellular free (non-esterified) fatty acids in liver of animals fed PRB-1; format: in vivo, mice; conditions: liver tissue, 1.5% of the fat content in diet for 8 weeks
Experimental: Liver tissue from animals fed PRB-1 was analysed with respect to free unesterified fatty acids. The animals were recruited from Experiment 4 (pharmacodynamic effects of DHA derivatives in an animal model of metabolic syndrome). The animals had been given DHA (15% of fat content of the diet) or the DHA-derivative (1.5% of the fat content in their diet) for 8 weeks and were supposed to be in a steady-state situation with stable levels of DHA and the DHA-derivative intracellularly. Liver tissue was chosen due to the fact that the metabolisation rate is very high in liver.
The liver samples were homogenized in cold PBS buffer, and extracted immediately with chloroform:methanol (2:1) containing 0.2 mM butylated hydroxytoluene (BHT) using cis-10-heptadecenoic acid as internal standard. […] Total protein content was measured using Bio-Rad method after homogenization.
Agilent 1100 system was used for reverse phase column (Supelco Ascentis C18 column, 25 cm×4.6 mm, i.d. 5 μm) separation within 22 min. […] The column elute was identified and quantified in the negative electrospray ionisation applying multiple reaction monitoring mode by triple tandem quadrapole mass/mass (ABI Qtrap-4000). […] The quadratic regression standard curve was used for quantification after internal standard calibration.

PPARγ = target: T1, PPARγ (Homo sapiens, UniProt P37231); assay: Affinity testing in transfected cells (luciferase release); format: cell-based; conditions: 10 μM, FIG. 3
T1 construct: For full length PPAR transfection studies, each well received 5 μg reporter construct; expressed in transfected cells; host or cells: COS-1 cells (adipocytes transfected with pSG5-PPARγ are also described)
T1 sequence (P37231 1-505): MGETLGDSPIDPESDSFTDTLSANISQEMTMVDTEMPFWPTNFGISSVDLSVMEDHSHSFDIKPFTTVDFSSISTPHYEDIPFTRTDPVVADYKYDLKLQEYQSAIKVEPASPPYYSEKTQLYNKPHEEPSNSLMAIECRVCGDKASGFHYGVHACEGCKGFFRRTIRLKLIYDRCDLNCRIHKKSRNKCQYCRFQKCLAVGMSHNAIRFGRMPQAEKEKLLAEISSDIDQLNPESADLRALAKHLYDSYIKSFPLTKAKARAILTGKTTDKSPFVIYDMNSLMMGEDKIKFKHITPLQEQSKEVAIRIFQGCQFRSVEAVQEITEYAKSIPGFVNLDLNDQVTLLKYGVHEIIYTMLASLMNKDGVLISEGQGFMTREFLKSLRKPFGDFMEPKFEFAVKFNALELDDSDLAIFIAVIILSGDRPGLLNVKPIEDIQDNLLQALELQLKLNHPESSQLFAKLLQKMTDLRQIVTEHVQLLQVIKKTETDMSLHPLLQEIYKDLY
Experimental: Release of luciferase is correlated to transcription of genes. Binding of a ligand to a nuclear receptor such as PPARγ induces transcription of the respective gene thereby releasing luciferase. This technique therefore provides a measure of ligand affinity to the receptor as well as activation of the responsible gene.
Transient transfection of COS-1 cells was performed in 6-well plates as described by Graham and van der Eb (Graham). For full length PPAR transfection studies, each well received 5 μg reporter construct, 2.5 μg pSV-β-galactosidase as an internal control, 0.4 μg pSG5-PPARγ2. The cells were harvested after 72 h, and the luciferase activity was measured according to the protocol (Promega). The luciferase activity was normalised against β-galactosidase activity. The adipocytes were transfected at D11 of differentiation using 16 μL LipofectaminPlus reagent, 4 μl Lipofectamine (Life Technologies Inc.), 0.2 μg pSG5-PPARγ, and 100 ng pTK Renilla luciferase as control of transfection afficiency. […] The luciferase activities were measured as recommended by the manufacturer (Dual Luciferase assay, Promega). […]
Fatty acids (BRL or DHA) and PRB-1 (stock solutions) were solubilized to 0.1 M final concentration in DMSO. […] Luciferase activity was measured using a luminometer (TD-20/20 luminometer; Turner Designs, Sunnycvale, Calif.) and normalized against protein content.

[3] = system: liver steatosis in mice fed high fat diet; assay: Testing of DHA derivatives on liver fat (histology); format: in vivo; conditions: eosin-hematoxylin stained liver
Source text: Tissue samples from animals in the experiments with DHA derivatives was histologically analysed. After paraffination, tissue samples from liver, adipose tissue, skeletal muscle, pancreas, and kidney were stained with eosin-hematoxylin.

[4] = 0.15% of fat content of cHF diet
[5] = 0.5% of fat content of cHF diet
[6] = 1.5% of fat content of cHF diet

SMILES | Fasted glucose [1, 4] | Body weight [1, 4] | NEFA [1, 4] | AUCglucose [1, 4] | TAGs [1, 4] | Fasted glucose [1, 5] | Body weight [1, 5] | Body wt. gain [1, 5] | NEFA [1, 5] | AUCglucose [1, 5] | Insulin [1, 5] | TAGs [1, 5] | Fasted glucose [1, 6] | Body weight [1, 6] | Body wt. gain [1, 6] | NEFA [1, 6] | TAGs [1, 6] | further results
CC/C=C\C/C=C\C/C=C\C/C=C\C/C=C\C/C=C\CCC(=O)O [DHA, (all-Z)-4,7,10,13,16,19-docosahexaenoic acid] | 141 ± 10 mg/dL | 48.3 ± 0.6 grams | 0.96 ± 0.07 mmol/L | 1477 ± 214 mM × 180 min | 1.50 ± 0.13 mmol/L | 136 ± 8 mg/dL | 46.9 ± 0.7 grams | 22.9 ± 0.7 grams | 0.89 ± 0.03 mmol/L | 1816 ± 182 mM × 180 min | 5.82 ± 0.47 ng/mL | 1.78 ± 0.08 mmol/L | 138 ± 7 mg/dL | 47.1 ± 0.7 grams | 23.0 ± 0.8 grams | 0.98 ± 0.07 mmol/L | 1.91 ± 0.26 mmol/L | Body wt. gain [1, 4]: 24.3 ± 0.8 grams; Insulin [1, 4]: 4.31 ± 0.39 ng/mL; AUCglucose [1, 6]: 2132 ± 288 mM × 180 min; Insulin [1, 6]: 6.55 ± 0.31 ng/mL
CC/C=C\C/C=C\C/C=C\C/C=C\C/C=C\C/C=C\CC(C)C(=O)OCC (stereo not drawn) [PRB-1, α-methyl DHA EE] | 126 ± 15 mg/dL | 47.2 ± 1.3 grams | 0.62 ± 0.04 mmol/L | 1291 ± 172 mM × 180 min | 1.75 ± 0.08 mmol/L | 131 ± 7 mg/dL | 47.4 ± 0.6 grams | 23.8 ± 0.5 grams | 0.73 ± 0.04 mmol/L | 1596 ± 205 mM × 180 min | 3.93 ± 0.59 ng/mL | 2.03 ± 0.22 mmol/L | 130 ± 14 mg/dL | 44.0 ± 1.5 grams | 20.2 ± 1.3 grams | 0.63 ± 0.03 mmol/L | 1.58 ± 0.08 mmol/L | concentration of the DHA-derivative (free unesterified fatty acid) in the liver cells [2]: about 10 μg per g of total amount of protein; release of luciferase from transfected cells (PPARγ): high release of luciferase; degree of fat liver (liver steatosis), histology [3]: low degree of fat liver
